Source: patent US6897200B1, “Oligonucleotide delivery systems for camptothecins” (University of Kentucky Research Foundation, priority 1998, dated 2005)

How the values were obtained:
[1] = tested on: single-strand DNA (ssDNA) (dT)30; test: Lactone stability in the presence of single-strand DNA (HPLC); assay type: physicochemical; conditions: ~33 mM base (dT)30; dsDNA 10- to 100-fold more dilute gives approximately equal stabilization
From the text: Note how the presence of DNA markedly stabilizes the biologically-active form of the camptothecins drugs. […] . But it is clear from our work that camptothecin drugs can interact with ssDNA as well as RNA (see FIGS. 4 through 7) and these interactions stabilize the biologically-active lactone forms of these agents.

[2] = tested on: dsDNA oligonucleotide d(CGTACG); test: NMR titration / 2D-NOESY of drug with d(CGTACG); conditions: drug:DNA ratios of 1:1, 2:1 and 3:1
dsDNA = test: Relactonization of carboxylate forms in dsDNA solutions (HPLC); conditions: ~30 mM base dsDNA in PBS, room temperature, after 30 hrs
[3] = tested on: duplex DNA oligonucleotides (dG-dC)15 or (dA-dT)15; test: UV absorption spectra of drug lactone with duplex DNA oligonucleotides; conditions: for DNA sequence preference (UV and HPLC data): (dG-dC)15 versus (dA-dT)15; for UV spectral change in the presence of DNA: PBS pH 5, 10 μM drug, (dG-dC)15 16 mM base or (dA-dT)15 24 mM base
[4] = Lactone ring hydrolysis in PBS in the absence of DNA (reversed-phase HPLC); conditions: for % Lactose at Equilibrium: PBS buffer, pH 7.4, 10 uM drug; for percent lactone at equilibrium: absence of DNA, 10 μM, incubated 3 hours, PBS pH 7.4, room temperature
[5] = tested on: dsDNA oligonucleotide (dG-dC)15; test: Lactone ring hydrolysis in PBS in the presence of (dG-dC)15 (reversed-phase HPLC); conditions: for % Lactose at Equilibrium: pH 7.4, 10 uM drug; for Lactone levels following three hours of incubation: (dG-dC)15 ~30 mM base, PBS pH 7.4, room temperature
[6] = tested on: dsDNA oligonucleotide (dA-dT)15; test: Lactone ring hydrolysis in PBS in the presence of (dA-dT)15 (reversed-phase HPLC); conditions: for % Lactose at Equilibrium: pH 7.4, 10 uM drug; for Lactone levels following three hours of incubation: (dA-dT)15 ~30 mM base, PBS pH 7.4, room temperature
[7] = tested on: double-stranded DNA (dsDNA); test: Fluorescence emission spectra of SN-38 lactone with DNA; assay type: binding; conditions: SN-38 lactone 1 μM, spectra within 2 min
Experimental: FIG. 8 depicts the marked shifting of the fluorescence emission spectra of SN-38 lactone (1 μM final concentration) in the presence of double-stranded DNA (dsDNA). SN38 contains a 10-hydroxy-nctionality which results in the molecule having a fluorescence emission which is highly sensitive to the presence of water in the surrounding microenvironment. […] Note how the agent fluoresces in the 410 nm to 460 nm region when water is not present, but fluoresces at 520 to 530 nm when water is present. […] The fluorophore was directly added to the DNA solution and the spectra recorded immediately (within 2 min.) prior to any significant conversion of the agent to carboxylate form.
To gain mechanistic insight into why the stabilization occurs, fluorescence spectroscopic scans of SN-38 lactone in the presence and absence of DNA were recorded.
Our results thus provide the first evidence that duplex DNA devoid of TopoI may play a functional role in the biological activities of the camptothecin drugs through the promotion of active lactone levels within the cell nucleus. […] The DNA-associated drugs are likely to be in their active lactone forms and ready for the subsequent drug-DNA-enzyme complex formation.

[8] = tested on: RNA (total RNA from yeast); test: Stability of topotecan lactone in the presence of RNA (reversed-phase HPLC); assay type: physicochemical; conditions: 1 μM topotecan
Experimental: FIG. 4 depicts the stability of topotecan in the presence of various concentrations of RNA at 22° C. In these experiments, topotecan (at a final concentration of 1 μM) was incubated in PBS, pH 7.4 in the presence of various concentrations of RNA (total RNA from yeast) for 30 min at 22° C. and analyzed for the fraction of lactone present by reversed-phase HPLC. […] As an example, in the presence of 7.5 mg/ml of RNA there exists a 10% greater amount of the lactone form than found in the absence of RNA.
FIG. 5. Stability of topotecan in the presence of various concentrations of RNA at 37° C. Topotecan (1 μM final concentration) was incubated in PBS, pH 7.4 in the presence of various concentrations of RNA (total RNA from yeast) for 30 min at 37° C. and analyzed for the fraction of lactone present by reversed-phase HPLC. At a RNA concentration of 7.5 mg/ml, 12% more of the lactone form of topotecan is present.
(§1) FIG. 6 represents a comparison of the stability of topotecan in the presence and absence of RNA at 22° C. Topotecan (1 μM final concentration) was incubated in PBS, pH 7.4 either alone (filled circles) or in the presence of 10 mg/ml of RNA (open circles) at 22° C. and analyzed for the fraction of lactone present at different times by reversed-phase HPLC.
as §1, with “7” for “6”, “37°” for “22°”, “in the absence” for “alone”

greater amount of the lactone form than in the absence of RNA ([8]; 7.5 mg/ml RNA, PBS pH 7.4, 30 min, 22 °C) | more of the lactone form present than without RNA ([8]; 7.5 mg/ml RNA, PBS pH 7.4, 30 min, 37 °C) | more of the lactone form present than without RNA ([8]; 10 mg/ml RNA, PBS pH 7.4, after 3 hrs, 22 °C) | more of the lactone form present than without RNA ([8]; 10 mg/ml RNA, PBS pH 7.4, after 3 hrs, 37 °C) | SMILES | effect of ssDNA on lactone stabilization (versus dsDNA) [1] | drug binding to DNA (2D-NOESY) [2] | active lactone level after relactonization of pure carboxylate form (dsDNA) | DNA sequence preference (UV and HPLC data) [3] | UV spectral change in the presence of DNA [3] | % Lactose at Equilibrium ([4]; 22 °C) | % Lactose at Equilibrium ([4]; 37 °C) | percent lactone at equilibrium [4] | % Lactose at Equilibrium ([5]; (dG-dC)15, 22 °C) | % Lactose at Equilibrium ([5]; (dG-dC)15, 37 °C) | Lactone levels following three hours of incubation [5] | % Lactose at Equilibrium ([6]; (dA-dT)15, 22 °C) | % Lactose at Equilibrium ([6]; (dA-dT)15, 37 °C) | Lactone levels following three hours of incubation [6] | direct binding of lactone form to DNA (fluorescence spectral shift) [7]
– | – | – | – | CCc1c2c(nc3ccc(OC(=O)N4CCC(N5CCCCC5)CC4)cc13)-c1cc3c(c(=O)n1C2)COC(=O)[C@]3(O)CC [CPT-11] | significantly diminished effects on stabilizing | clearly consistent with drug binding to DNA | ~30% | no signs of any sequence preference | substantial hypochromic and red spectral shift | 17 ± 1% | 8 ± 2% | 24% | −50% | 30 ± 2% | 95% | −50% | 29 ± 2% | 95% | –
– | – | – | – | CCc1c2c(nc3ccc(O)cc13)-c1cc3c(c(=O)n1C2)COC(=O)[C@]3(O)CC [SN-38, 7-ethyl-10-hydroxycamptothecin] | – | – | – | – | – | – | – | – | – | – | – | – | – | – | binds the DNA
10% | 12% | 25% | 15% | CC[C@@]1(O)C(=O)OCc2c1cc1n(c2=O)Cc2cc3c(CN(C)C)c(O)ccc3nc2-1 [TPT, topotecan] | significantly diminished effects on stabilizing | clearly consistent with drug binding to DNA | ~30% | sequence preference of (dG-dC)15 over (dA-dT)15 | substantial hypochromic and red spectral shift | 15 ± 1% | 10 ± 1% | 12% | −50% | 26 ± 2% | 95% | −50% | 19 ± 2% | 78% | –
– | – | – | – | CC[C@@]1(O)C(=O)OCc2c1cc1n(c2=O)Cc2cc3ccccc3nc2-1 [camptothecin] | – | – | – | – | – | – | – | – | – | – | above 80% | – | – | – | –
